The text below walks through data of article PMC10896388, “Hybrid Allosteric Modulators of M1 Muscarinic Receptors Enhance Acetylcholine Efficacy and Decrease Locomotor Activity and Turning Behaviors in Zebrafish” (Research Square, 2024).

In series [1] the test system is wild-type (AB) zebrafish (Danio rerio). Nature of the series: Maximum tolerated concentration (MTC) determination in zebrafish larvae. The series is classed as in vivo. The following applies: for MTC (maximum tolerated concentration): 5 dpf zebrafish larvae, after 24-hr exposure. Here is the method:
Determination of maximum tolerated concentration (adapted from Berghmans)[52] was completed by placing 5 days post fertilization (dpf) wild-type zebrafish larvae in a 24 well plate at 6 fish per well, and one compound concentration per well. […] Death was determined by the absence of heartbeat. Additional endpoints were used to assess toxicity at non-lethal concentrations such as startle capacity (poke stimulus), abnormalities in swimming behavior (loss of dorsoventral balance), and gross morphological deformities (bent body). […] The MTC determination was used to select three doses of each compound (low, medium, high dose) to be used in behavioral assays.

For series [2] the test system is unchanged. Briefly: animal or person. The series is classed as in vivo. As to conditions: zebrafish; apparently MTC / MEC. Here is the method: The movement of larval zebrafish was monitored with the Noldus behavior recording system (Noldus Information Technology, Leesburg VA) and quantified using EthoVision® XT 15 software (Noldus Information Technology, Leesburg VA). Five-dpf zebrafish larvae were exposed to a range of nonlethal concentrations of compounds in a 24-well plate with appropriate controls. The plate was immediately placed in the incubator for a 30-minute exposure period. After 30 minutes, the plate was transferred to the Noldus system and swimming behavior was recorded in 100% light for 30 minutes to measure spontaneous swimming behavior. The light was switched off for 10 minutes (dark period) and then switched on for 10 minutes (light period), which was then repeated for two additional cycles. In total, the larvae were exposed to three cycles of alternating 10-minute dark and light periods (100% darkness-to-100% light). Each drug challenge was conducted on three separate plates with n = 6 larvae/dose/plate.
Absolute turn angle (TA) and angular velocity provided measures of the extent of turning behavior, while the intra-individual variance of turn angle quantified how consistently (low variance) or inconsistently (high variance) fish turned. A lowered intra-individual variance of turning reflected repeatedly performing the same turning behavior, a stereotypy.[53]
All data for exposure and the behavioral end points were analyzed by one-way ANOVA (factor: drug concentration) followed by a Dunnett’s multiple comparisons test for post hoc significance between drug concentration and control group. Statistically significant differences are noted as follows; *, p < 0.05; **, p < 0.01; ***, p < 0.001.

Turning to `COc1cc(CN2C(=O)C(=O)c3ccccc32)cc(OC)c1OC` [Compound 8k, 1-(3,4,5-trimethoxybenzyl)indoline-2,3-dione], the “MTC (maximum tolerated concentration)” value in series [1] is recorded as 30 µM. Moreover, the “Therap. Index” value in series [2] came out at 30. `COc1ccc(CN2C(=O)C(=O)c3ccccc32)cc1Cl` [Compound 8f, 1-(3-chloro-4-methoxybenzyl)indoline-2,3-dione]: the “MTC (maximum tolerated concentration)” value in series [1] was determined as 10 µM. Further, in series [2], the “Therap. Index” value was determined as 3.3. The corresponding values for `COc1c(Cl)cc(CN2C(=O)C(=O)c3ccccc32)cc1Cl` [Compound 8e, 1-(3,5-dichloro-4-methoxybenzyl)indoline-2,3-dione] are 100 µM and 100. As to `COc1ccc(CN2C(=O)C(=O)c3ccccc32)cc1I` [Compound 8b, 1-(3-iodo-4-methoxybenzyl)indoline-2,3-dione], the “MTC (maximum tolerated concentration)” value in series [1] amounted to 10 µM. Further, the “Therap. Index” value in series [2] amounted to 10. As to `COc1ccc(CN2C(=O)C(=O)c3ccccc32)cc1Br` [Compound 8d, 1-(3-bromo-4-methoxybenzyl)indoline-2,3-dione], the “MTC (maximum tolerated concentration)” value in series [1] is listed as 100 µM. In series [2], the “Therap. Index” value is listed as 100. As to `CCCCc1oc2ccccc2c1C(=O)c1ccc(OC)cc1` [Compound 6a, (2-butylbenzofuran-3-yl)(4-methoxyphenyl)methanone], in series [1], the “MTC (maximum tolerated concentration)” value is given as 3 µM. As to `COc1ccc(CN2C(=O)C(=O)c3ccccc32)cc1F` [Compound 8h, 1-(3-fluoro-4-methoxybenzyl)indoline-2,3-dione], in series [1], the “MTC (maximum tolerated concentration)” value turned out to be 30 µM. Moreover, in series [2], the “Therap. Index” value is 10.

For the molecule `O=C1C(=O)N(Cc2ccc(O)cc2)c2ccccc21` [Compound 10, 1-(4-hydroxybenzyl)indoline-2,3-dione], the “MTC (maximum tolerated concentration)” value in series [1] is listed as 10 µM. In series [2], the “Therap. Index” value was found to be 3.3. With `O=C1C(=O)N(Cc2cc(F)c(F)c(F)c2)c2ccccc21` [Compound 8i, 1-(3,4,5-trifluorobenzyl)indoline-2,3-dione], the “MTC (maximum tolerated concentration)” value in series [1] was determined as 10 µM. The “Therap. Index” value in series [2] came out at 10. Consider `COc1c(F)cc(CN2C(=O)C(=O)c3ccccc32)cc1F` [Compound 8g, 1-(3,5-difluoro-4-methoxybenzyl)indoline-2,3-dione], for which the “MTC (maximum tolerated concentration)” value in series [1] is 30 µM. Besides, the “Therap. Index” value in series [2] came out at 30. For the molecule `CCCCc1oc2ccccc2c1C(=O)c1cc(I)c(OCCN(CC)CC)c(I)c1` [Amiodarone, reference compound], in series [1], the “MTC (maximum tolerated concentration)” value stood at 10 µM. Further, in series [1] (zebrafish larvae), the “concentration that produced death” value is reported as 100 µM.
